Broadly, the IC50 is the concentration needed to halve the response being measured. Read a low IC50 as greater potency in that assay.

For one compound, IC50 results are on record in ChEMBL document CHEMBL3638533, “4-carboxybenzylamino derivatives as histone deacetylase inhibitors” (2015).

This assay has as its target Histone deacetylase 1 (Homo sapiens, UniProt Q13547). Nature of the assay: Flag Assay: Novel compounds were tested for their ability to inhibit histone deacetylase, subtype 1 (HDAC1) using an in vitro deacetylation assay. The enzyme source for this assay was an epitope-tagged human HDAC1 complex immuno-purified from stably expressing mammalian cells. The substrate consisted of a commercial product containing an acetylated lysine side chain (BIOMOL Research Laboratories, Inc., Plymouth Meeting, Pa.). Upon deacetylation of the substrate by incubation with the purified HDAC1 complex, a fluorophore is produced that is directly proportional to the level of deacetylation.

Histone deacetylase 1, sequence (Q13547 whole entry): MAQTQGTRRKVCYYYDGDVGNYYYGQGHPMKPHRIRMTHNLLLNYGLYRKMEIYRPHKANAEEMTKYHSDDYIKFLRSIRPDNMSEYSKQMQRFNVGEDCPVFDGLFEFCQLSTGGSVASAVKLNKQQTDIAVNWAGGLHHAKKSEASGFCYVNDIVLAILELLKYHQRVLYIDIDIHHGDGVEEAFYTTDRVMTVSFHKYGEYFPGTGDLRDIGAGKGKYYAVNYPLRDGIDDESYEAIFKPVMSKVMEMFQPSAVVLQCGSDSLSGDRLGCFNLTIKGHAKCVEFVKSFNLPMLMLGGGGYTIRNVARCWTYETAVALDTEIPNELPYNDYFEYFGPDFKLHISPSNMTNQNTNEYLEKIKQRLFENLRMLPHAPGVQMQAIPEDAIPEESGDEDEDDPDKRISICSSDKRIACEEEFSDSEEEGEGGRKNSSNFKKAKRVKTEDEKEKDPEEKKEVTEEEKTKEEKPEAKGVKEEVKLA

`O=C(Nc1cc(-c2ccccc2)ccc1O)c1ccc(CNCCc2c[nH]cn2)cc1` showed an IC50 of 2500 nM.
